According to article PMC11211671, “Phage‐displayed heptapeptide sequence conjugation significantly improves the specific targeting ability of antimicrobial peptides against Staphylococcus aureus” (mLife, 2024):
In brackets after ≈: the same amount, converted by molar mass. Peptide text beside a SMILES is read from it.

Key:
S. aureus 1882 = type: cell-based, Staphylococcus aureus
Experimental: (§1) MICs were determined to evaluate the antimicrobial activities of the peptides. The bacteria were inoculated into Mueller‐Hinton broth (MHB) medium in advance and placed in a shaker at 37°C until the logarithmic growth phase. The optical density value at OD600 of the bacterial suspension was adjusted to 0.4, and then diluted 1000 times with sterile MHB medium. Subsequently, the peptides with concentrations of 0.25–128 μM were prepared using bovine serum albumin (BSA) solution (0.2% BSA and 0.01% acetic acid) as the solvent on a 96‐well plate. Different concentrations of peptides and bacterial liquids were mixed in equal volumes. MHB medium containing bacteria was used as a positive control. MHB medium without bacteria was used as a negative control. Then, the mixture of peptides and bacteria was cultured in an incubator at 37°C for 18–24 h. The optical density of each well was measured at 492 nm using a microplate reader. The lowest drug concentration corresponding to a culture mixture with an optical density of less than 0.1 is the MIC of the peptide. The assay was repeated three times in duplicate.

S. aureus 6538 = type: cell-based, Staphylococcus aureus
Experimental: as §1

S. epidermidis 12228 = type: cell-based, Staphylococcus epidermidis
Experimental: as §1

E. coli 25922 = type: cell-based, Escherichia coli
Experimental: as §1

E. coli K88 = type: cell-based, Escherichia coli; settings: microbroth dilution, MHB, 37°C, 18–24 h, OD492 < 0.1; repeated three times in duplicate
Experimental: as §1

E. coli K99 = type: cell-based, Escherichia coli; settings: microbroth dilution, MHB, 37°C, 18–24 h, OD492 < 0.1; repeated three times in duplicate
Experimental: as §1

P. aeruginosa 15442 = type: cell-based, Pseudomonas aeruginosa
Experimental: as §1

P. aeruginosa 27853 = type: cell-based, Pseudomonas aeruginosa
Experimental: as §1

red blood cells = type: cell-based, pig
Experimental: A series of parameters such as charge number, hydrophobicity, sequence length, and amphipathicity can affect the hemolytic activity of peptides against red blood cells. The minimal hemolytic concentration (MHC) refers to the minimum concentration that causes hemolysis of 10 % of red blood cells, and is often used to evaluate the hemolytic activity of the peptides. Except for SFK3, the percentage of hemolysis at 128 μM was below 5% for all peptides. Hemolysis of the erythrocytes occurred after incubation with Triton X‐100, with complete fragmentation of the erythrocytes and a bright red color of the reaction system (Figure 2B,C and Table S5).
The hemolytic activity of the peptide was calculated by measuring the level of […] released from mammalian red blood cell lysis induced by the peptide, [44]. Fresh porcine blood was collected from the jugular vein and washed with PBS three times, and red blood cells were collected. A red blood cell suspension of 10% (v/v) concentration was prepared in 10 mM PBS (pH = 7.4). After mixing with different concentrations of peptides in equal volume, they were incubated at 37°C for 2 h. Red blood cells treated with PBS and 0.1% Triton X‐100 were used as negative and positive controls, respectively. The assay was repeated three times. After the sample was centrifuged, the supernatant was transferred to a new 96‐well plate, and the optical density at 570 nm was measured using a microplate reader. Hemolysis was calculated as follows: Hemolytic activity(%)=ODtest sample−ODnegative control/ODpositive control−ODnegative control×100%

S. aureus ATCC 6538 = experiment: Drug resistance assay, continuous passaging at sub-MIC; type: cell-based, Staphylococcus aureus
Experimental: The fold change in the MIC of peptides and […] against S. aureus ATCC 6538 was measured using the continuous passaging method to evaluate the development of drug resistance. The MIC values of the peptide and vancomycin against S. aureus ATCC 6538 were determined according to the above method, and the solutions in the sub‐MIC wells were aspirated and transferred to a fresh MHB medium for the next round of MIC determination. The procedure lasted for 30 days.

Compound	MIC S. aureus 1882 (S. aureus 1882)	MIC S. aureus 6538 (S. aureus 6538)	MIC S. epidermidis 12228 (S. epidermidis 12228)	MIC E. coli 25922 (E. coli 25922)	MIC E. coli K88 (E. coli K88)	MIC E. coli K99 (E. coli K99)	MIC P. aeruginosa 15442 (P. aeruginosa 15442)	MIC P. aeruginosa 27853 (P. aeruginosa 27853)	MHC (red blood cells)	Fold increase of MIC compared with the initial value (S. aureus ATCC 6538; Day 9, sub-MIC passaging)	MIC relative to the initial value (S. aureus ATCC 6538; end of the trial (30 days), sub-MIC passaging)
CC[C@H](C)[C@H](NC(=O)[C@H](CCCNC(=N)N)NC(=O)[C@H](CO)NC(=O)[C@H](CC(C)C)NC(=O)[C@H](Cc1ccccc1)NC(=O)[C@H](Cc1ccccc1)NC(=O)[C@H](Cc1ccccc1)NC(=O)CNC(=O)CNC(=O)CNC(=O)[C@H](CO)NC(=O)[C@H](C)NC(=O)[C@H](CCCNC(=N)N)NC(=O)[C@@H](NC(=O)[C@H](Cc1c[nH]c2ccccc12)NC(=O)[C@H](Cc1ccc(O)cc1)NC(=O)[C@@H](N)CO)C(C)C)C(=O)N[C@@H](Cc1ccccc1)C(=O)N[C@@H](CCCCN)C(=O)N[C@@H](CCCCN)C(=O)N[C@@H](CCCCN)C(N)=O [SFK3] (H-SYWVRASGGGFFFLSRIFKKK-NH2)	1 µM (≈ 2.48 µg/mL)	2 µM (≈ 4.96 µg/mL)	>64 µM	>64 µM	16 µM (≈ 39.7 µg/mL)	16 µM (≈ 39.7 µg/mL)	>64 µM	>64 µM	>128 μM		
CC[C@H](C)[C@H](NC(=O)[C@H](CCCNC(=N)N)NC(=O)[C@H](CO)NC(=O)[C@H](CC(C)C)NC(=O)[C@H](Cc1ccccc1)NC(=O)[C@H](Cc1ccccc1)NC(=O)[C@H](Cc1ccccc1)NC(=O)CNC(=O)CNC(=O)CNC(=O)[C@H](CO)NC(=O)[C@H](C)NC(=O)[C@H](CCCNC(=N)N)NC(=O)[C@@H](NC(=O)[C@H](Cc1c[nH]c2ccccc12)NC(=O)[C@H](Cc1ccc(O)cc1)NC(=O)[C@@H](N)CO)C(C)C)C(=O)N[C@@H](Cc1ccccc1)C(=O)N[C@@H](CCCCN)C(N)=O [SFK] (H-SYWVRASGGGFFFLSRIFK-NH2)	2 µM (≈ 4.45 µg/mL)	4 µM (≈ 8.9 µg/mL)	>64 µM	>64 µM	32 µM (≈ 71.2 µg/mL)	64 µM (≈ 142 µg/mL)	>64 µM	>64 µM	>128 μM		
CC[C@H](C)[C@H](NC(=O)[C@H](CCCNC(=N)N)NC(=O)[C@H](CO)NC(=O)[C@H](CC(C)C)NC(=O)[C@H](Cc1ccccc1)NC(=O)[C@H](Cc1ccccc1)NC(=O)[C@H](Cc1ccccc1)NC(=O)CNC(=O)CNC(=O)CNC(=O)[C@H](CO)NC(=O)[C@H](C)NC(=O)[C@H](CCCNC(=N)N)NC(=O)[C@@H](NC(=O)[C@H](Cc1c[nH]c2ccccc12)NC(=O)[C@H](Cc1ccc(O)cc1)NC(=O)[C@@H](N)CO)C(C)C)C(=O)N[C@@H](Cc1ccccc1)C(=O)N[C@@H](CCCNC(=N)N)C(=O)N[C@@H](CCCNC(=N)N)C(N)=O [SFR2] (H-SYWVRASGGGFFFLSRIFRR-NH2)	1 µM (≈ 2.41 µg/mL)	4 µM (≈ 9.64 µg/mL)	>64 µM	>64 µM	32 µM (≈ 77.1 µg/mL)	64 µM (≈ 154 µg/mL)	>64 µM	>64 µM	>128 μM		
CC[C@H](C)[C@H](NC(=O)[C@H](CCCNC(=N)N)NC(=O)[C@H](CO)NC(=O)[C@H](CC(C)C)NC(=O)[C@H](Cc1ccccc1)NC(=O)[C@H](Cc1ccccc1)NC(=O)[C@H](Cc1ccccc1)NC(=O)CNC(=O)CNC(=O)CNC(=O)[C@H](CO)NC(=O)[C@H](C)NC(=O)[C@H](CCCNC(=N)N)NC(=O)[C@@H](NC(=O)[C@H](Cc1c[nH]c2ccccc12)NC(=O)[C@H](Cc1ccc(O)cc1)NC(=O)[C@@H](N)CO)C(C)C)C(=O)N[C@@H](Cc1ccccc1)C(=O)N[C@@H](CCCNC(=N)N)C(=O)N[C@@H](CCCNC(=N)N)C(=O)N[C@@H](CCCNC(=N)N)C(N)=O [SFR3] (H-SYWVRASGGGFFFLSRIFRRR-NH2)	4 µM (≈ 10.3 µg/mL)	16 µM (≈ 41 µg/mL)	>64 µM	>64 µM	32 µM (≈ 82.1 µg/mL)	>64 µM	>64 µM	>64 µM	>128 μM		
CC[C@H](C)[C@H](NC(=O)[C@H](CCCNC(=N)N)NC(=O)[C@H](CO)NC(=O)[C@H](CC(C)C)NC(=O)[C@H](Cc1ccccc1)NC(=O)[C@H](Cc1ccccc1)NC(=O)[C@H](Cc1ccccc1)NC(=O)CNC(=O)CNC(=O)CNC(=O)[C@H](CO)NC(=O)[C@H](C)NC(=O)[C@H](CCCNC(=N)N)NC(=O)[C@@H](NC(=O)[C@H](Cc1c[nH]c2ccccc12)NC(=O)[C@H](Cc1ccc(O)cc1)NC(=O)[C@@H](N)CO)C(C)C)C(=O)N[C@@H](Cc1ccccc1)C(=O)N[C@@H](CCCNC(=N)N)C(N)=O [SFR] (H-SYWVRASGGGFFFLSRIFR-NH2)	2 µM (≈ 4.51 µg/mL)	2 µM (≈ 4.51 µg/mL)	>64 µM	>64 µM	32 µM (≈ 72.1 µg/mL)	32 µM (≈ 72.1 µg/mL)	>64 µM	>64 µM	>128 μM		
CC[C@H](C)[C@H](NC(=O)[C@H](CCCNC(=N)N)NC(=O)[C@H](CO)NC(=O)[C@H](CC(C)C)NC(=O)[C@H](Cc1ccccc1)NC(=O)[C@H](Cc1ccccc1)NC(=O)[C@H](Cc1ccccc1)NC(=O)CNC(=O)CNC(=O)CNC(=O)[C@H](CO)NC(=O)[C@H](C)NC(=O)[C@H](CCCNC(=N)N)NC(=O)[C@@H](NC(=O)[C@H](Cc1c[nH]c2ccccc12)NC(=O)[C@H](Cc1ccc(O)cc1)NC(=O)[C@@H](N)CO)C(C)C)C(=O)N[C@@H](Cc1ccccc1)C(N)=O [SF] (H-SYWVRASGGGFFFLSRIF-NH2)	2 µM (≈ 4.19 µg/mL)	16 µM (≈ 33.5 µg/mL)	>64 µM	>64 µM	>64 µM	>64 µM	>64 µM	>64 µM	>128 μM		
O=C(O)c1cn(C2CC2)c2cc(N3CCNCC3)c(F)cc2c1=O [ciprofloxacin]										16 fold	2560 times
